The assay concerns P388/ADR leukemia. Put plainly: NCI tumour cell line growth inhibition, 48 h.

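1) Cells in 96-well plates. 2) Compound, 48 h, 5 concentrations. 3) Linear interpolation between surrounding doses. 4) Unreached endpoint = highest concentration. TGI is the concentration that stops growth completely.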

With `O=c1cnn(C2OC(CO)C(O)C2O)c(=S)[nH]1` (stereo unspecified), the TGI came to 6.27 µM.

The values are drawn from PubChem BioAssay (NCI).
